# From patent US20230270148A1, “BITTER BLOCKERS AND RELATED METHODS OF USE” (Conagen Inc., priority 2020, published 2023)
# Tests used:
# [1] = tested on: caffeine in water; test: Two-alternative forced choice (2AFC) difference test; assay type: in vivo
# Description: The bitter blocker candidates BB09, BB11, and BB13 were subject to a two-alternative forced choice (2AFC) difference test wherein panelists were presented Control Caffeine solutions and Test solutions containing caffeine and one of three bitterness blocker candidates (BB09, BB 11, or BB13). Panelists were asked to evaluate the two samples and answer the question, “which one is more hitter?”
# BB09 and BB11 were tested first. Three ounces of control (caffeine in water), BB09 in caffeine water, and BB11 in caffeine water were presented at room temperature in separate plastic souffle cups labeled with 3-digit codes. Ten sensory trained panelists evaluated each sample in three repetitions with a 10 minute break between repetitions. Panelists then completed the 2AFC. Data was collected on EveQuestion and analyzed on XLSTAT. Testing was conducted at Sensations Research according to FEMA guidelines.
# BB13 was tested separately. Two ounces of control (caffeine in water), BB13 in caffeine water were presented at room temperature in separate plastic souffle cups labeled with 3-digit codes. Fifteen participants evaluated each sample in two repetitions with a 10 minute break between repetitions for a total of thirty evaluations as per the FEMA guidelines. Panelists then completed the 2AFC to identify the more bitter sample. Data was collected and analyzed on Compusense.
# [2] = tested on: dark roast coffee; test: Sensory evaluation: bitterness reduction of dark roast coffee; assay type: in vivo; settings: dosage 50 or 100 ppm per sample
# Description: (§1) The bitterness blocker candidates listed in Table 1 were prepared into a 1% sample solution with propylene glycol and heated to ensure complete solubilization. […] A trained sensory evaluator was asked to estimate the perceived bitterness reduction against the control, as well as to provide comments on how the addition of the individual sample solution modulated the taste and mouth feel profile of the resulting dark roast coffee.
# [3] = tested on: peach-flavored energy drink (caffeine, B vitamins); test: Sensory evaluation: bitterness reduction of a peach-flavored energy drink; assay type: in vivo; settings: dosage per sample
# Description: as §1, with “peach-flavored energy drink.” for “dark roast coffee.”
# [4] = tested on: individual donor-derived hTBECs; test: Cell calcium mobilization assay; assay type: cell-based, human
# Description: (§2) The bitter blocker candidates were further characterized using bitter-responsive human taste bud tissue-derived cells (hTBEC) platforms and bioassays. Bitter-responsive hTBECs were treated with hitter blocker candidates and various bitter agonists to assess the efficacy of each bitter blocker candidate in reducing the bitterness of each of the various bitter agonists.
# Calcium mobilization response following treatment of 100 μM Dextromethorphan-HBr, 3000 μM Theobromine, and 3 mM Caffeine was evaluated in individual donor-derived hTBECs.
# [5] = tested on: bitter-responsive human taste bud tissue-derived cells (hTBEC); test: ATP secretion detection assay (luminescence); assay type: cell-based
# Description: as §2
# One industry standard bitter agonist was used as a control (L-Praziquantel), and five bitter blocker controls were used (Senomyx BB68, STX-001, sodium gluconate, eridictyol, and homoeridictyol).
# BB09, BB11, and BB13 were first tested at various concentrations in combination with 100 μM Dextromethorphan-HBr.
# Next, bitter blocker concentration ranges were narrowed (100 μM-1,000 μM) and compared to a fixed concentration of stimulus. […] BB13 was evaluated further by real time ATP secretion detection in pooled hTBEC 66 cells treated with 300 μM Theobromine.
# Each culture was treated with BB09, BB11, BB13, STX001, or Senomyx BB68, as well as either Dextromethorphan-HBr at 1000 μM (FIGS. 18A-18C), Theobromine at 1,000 μM (FIGS. 19A-19C), Rebaudioside A at 1 mM (FIGS. 20A-20C), or Caffeine at 3 mM (FIGS. 21A-21C).
# [6] = of thirty evaluations (15 participants, 2 repetitions)
structure (smiles),measurement,setting,value
"O=C1C[C@@H](c2ccc(O)c(O)c2)Oc2c1c(O)cc(O)c2[C@@H]1O[C@H](CO)[C@@H](O)[C@H](O)[C@H]1O [BB13, Eriodictyol-8-C-β-glucoside]",significance of bitterness difference control vs sample,[1]; 90% and 95% confidence interval (FIG. 11),control sample was significantly more bitter
same,panelists' description of samples,[1]; blocker in caffeine water,"initial sweetness that mask the bitterness, less lingering bitterness, and having a nutty taste"
same,evaluations identifying the sample containing the blocker as more bitter,[1]; [6],three
same,evaluations selecting control as more bitter,[1]; [6],Twenty-seven
same,Comments,[2],Very smooth with nice upfront
same,Comments,[3],Excellent bitter blocking
same,inhibition of calcium mobilization induced by Dextromethorphan-HBr,"[4]; 100 μM Dextromethorphan-HBr, blocker 0.3 μM to 1,000 μM, at high concentrations (FIG. 25)",inhibited calcium mobilization
same,inhibition of calcium mobilization induced by Caffeine,"[4]; 3 mM Caffeine, blocker 1,000 μM, hTBEC 56 cells (FIG. 27)",inhibited calcium mobilization
same,inhibition of calcium mobilization induced by Theobromine,"[4]; 3000 μM Theobromine, blocker 1 μM to 3,000 μM, at high concentrations (FIG. 26)",inhibited calcium mobilization
same,inhibition of luminescence signal from Dextromethorphan-HBr,"[5]; 100 μM Dextromethorphan-HBr, blocker 100 μM-1,000 μM, upper concentrations, individual donor-derived hTBECs (FIG. 14A)",inhibited luminescence signal
same,inhibitory activity against Dextromethorphan-HBr (ATP secretion),"[5]; 100 μM Dextromethorphan-HBr, blocker 1 mM, all three hTBEC cultures (FIG. 22A)",consistently showed inhibitory activity
same,inhibition of luminescence activity of Dextromethorphan-HBr (ATP secretion),"[5]; 100 μM Dextromethorphan-HBr, various blocker concentrations (FIG. 12)",able to inhibit
same,inhibition of luminescence signal from L-Praziquantel,"[5]; 400 μM L-Praziquantel, blocker 100 μM-1,000 μM, upper concentrations, individual donor-derived hTBECs (FIG. 14B)",inhibited luminescence signal
same,inhibitory activity against L-Praziquantel (ATP secretion),"[5]; 400 μM L-Praziquantel, blocker 1 mM, all three hTBEC cultures (FIG. 24)",consistently showed inhibitory activity
same,inhibition of the L-Praziquantel response (ATP secretion),"[5]; 400 μM L-Praziquantel, pooled donor-derived hTBEC (FIG. 13)",showed inhibition
same,inhibitory activity against Rebaudioside A (ATP secretion),"[5]; 1 mM Rebaudioside A, blocker 1 mM, all three hTBEC cultures (FIG. 23A)",consistently showed inhibitory activity
same,real time Rebaudioside A-induced ATP secretion,"[5]; 1 mM Rebaudioside A, blocker 1,000 μM, pooled hTBEC 56 cultures (FIG. 17)",attenuated
same,inhibitory activity against Theobromine (ATP secretion),"[5]; 1,000 μM Theobromine, blocker 1 mM, all three hTBEC cultures (FIG. 22B)",consistently showed inhibitory activity
same,inhibitory activity against Caffeine (ATP secretion),"[5]; 3 mM Caffeine, blocker 1 mM, all three hTBEC cultures (FIG. 23B)",consistently showed inhibitory activity
same,inhibition of Rebaudioside A-induced ATP secretion,"[5]; 3 mM Rebaudioside A, pooled hTBEC 56 cultures, blocker 100, 300 or 1,000 μM (FIG. 16)",strongest inhibition
same,inhibition of the bitter agonists (ATP secretion),"[5]; hTBEC 66, hTBEC 56, hTBEC Donor H, Dextromethorphan-HBr at 1000 μM, Theobromine 1,000 μM, Rebaudioside A 1 mM or Caffeine 3 mM (FIGS. 18-21)",most consistent inhibition
same,real time ATP secretion response to Theobromine,"[5]; pooled hTBEC 66 cells, 300 μM Theobromine, blocker at 1 mM (FIG. 15)",attenuated the Theobromine-stimulated signal
